Reference: PubChem BioAssay (NCI)
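Values below derive from 48-hour exposures of cells grown in 96-well plates, with endpoints linearly interpolated between the two concentrations bracketing the appropriate inhibition level. Here, GI50 denotes the concentration required for 50% inhibition of growth. TGI: total growth inhibition.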

What was measured:
Assay in all cases: NCI tumour cell line growth inhibition, 48 h
786-0 renal = tested on: 786-0 renal
A498 renal = tested on: A498 renal
A549 NSCLC = tested on: A549 NSCLC
ACHN renal = tested on: ACHN renal
BT-549 breast = tested on: BT-549 breast
CAKI-1 renal = tested on: CAKI-1 renal
CCRF-CEM leukemia = tested on: CCRF-CEM leukemia
COLO 205 colon = tested on: COLO 205 colon
DU-145 prostate = tested on: DU-145 prostate
EKVX NSCLC = tested on: EKVX NSCLC
HCC-2998 colon = tested on: HCC-2998 colon
HCT-116 colon = tested on: HCT-116 colon
HCT-15 colon = tested on: HCT-15 colon
HL-60(TB) leukemia = tested on: HL-60(TB) leukemia
HOP-62 NSCLC = tested on: HOP-62 NSCLC
HOP-92 NSCLC = tested on: HOP-92 NSCLC
HS 578T breast = tested on: HS 578T breast
HT29 colon = tested on: HT29 colon
IGROV1 ovarian = tested on: IGROV1 ovarian
K-562 leukemia = tested on: K-562 leukemia
KM12 colon = tested on: KM12 colon
LOX IMVI melanoma = tested on: LOX IMVI melanoma
M14 melanoma = tested on: M14 melanoma
MALME-3M melanoma = tested on: MALME-3M melanoma
MCF7 breast = tested on: MCF7 breast
MDA-MB-231 breast = tested on: MDA-MB-231 breast
MDA-MB-435 = tested on: MDA-MB-435
MOLT-4 leukemia = tested on: MOLT-4 leukemia
NCI-H226 lung = tested on: NCI-H226 lung
NCI-H23 lung = tested on: NCI-H23 lung
NCI-H460 lung = tested on: NCI-H460 lung
NCI-H522 lung = tested on: NCI-H522 lung
NCI/ADR-RES ovarian = tested on: NCI/ADR-RES ovarian
OVCAR-3 ovarian = tested on: OVCAR-3 ovarian
OVCAR-4 ovarian = tested on: OVCAR-4 ovarian
OVCAR-5 ovarian = tested on: OVCAR-5 ovarian
OVCAR-8 ovarian = tested on: OVCAR-8 ovarian
PC-3 prostate = tested on: PC-3 prostate
RPMI-8226 leukemia = tested on: RPMI-8226 leukemia
RXF 393 renal = tested on: RXF 393 renal
SF-268 CNS = tested on: SF-268 CNS
SF-295 CNS = tested on: SF-295 CNS
SF-539 CNS = tested on: SF-539 CNS
SK-MEL-2 melanoma = tested on: SK-MEL-2 melanoma
SK-MEL-28 melanoma = tested on: SK-MEL-28 melanoma
SK-MEL-5 melanoma = tested on: SK-MEL-5 melanoma
SK-OV-3 ovarian = tested on: SK-OV-3 ovarian
SN12C renal = tested on: SN12C renal
SNB-19 CNS = tested on: SNB-19 CNS
SNB-75 CNS = tested on: SNB-75 CNS
SR leukemia = tested on: SR leukemia
SW-620 colon = tested on: SW-620 colon
T-47D breast = tested on: T-47D breast
TK-10 renal = tested on: TK-10 renal
U251 CNS = tested on: U251 CNS
UACC-257 melanoma = tested on: UACC-257 melanoma
UACC-62 melanoma = tested on: UACC-62 melanoma
UO-31 renal = tested on: UO-31 renal

CN1CCN(Cc2ccc(NC(=O)c3cncc(C#Cc4cnc5ccc(NCCO)nn45)c3)cc2C(F)(F)F)CC1
GI50 (786-0 renal): 0.853 µM | TGI (786-0 renal): 2.03 µM | GI50 (A498 renal): 0.385 µM | TGI (A498 renal): 0.946 µM | GI50 (A549 NSCLC): 0.718 µM | TGI (A549 NSCLC): 4.65 µM | GI50 (ACHN renal): 1.7 µM | TGI (ACHN renal): 5.86 µM | GI50 (BT-549 breast): 0.824 µM | TGI (BT-549 breast): 1.62 µM | GI50 (CAKI-1 renal): 0.764 µM | TGI (CAKI-1 renal): 3.47 µM | GI50 (CCRF-CEM leukemia): 0.031 µM | TGI (CCRF-CEM leukemia): 17.8 µM | GI50 (COLO 205 colon): 0.111 µM | TGI (COLO 205 colon): 0.306 µM | GI50 (DU-145 prostate): 0.486 µM | TGI (DU-145 prostate): 3.47 µM | GI50 (EKVX NSCLC): 0.673 µM | TGI (EKVX NSCLC): 4.01 µM | GI50 (HCC-2998 colon): 0.687 µM | TGI (HCC-2998 colon): 3.2 µM | GI50 (HCT-116 colon): 0.0921 µM | TGI (HCT-116 colon): 0.675 µM | GI50 (HCT-15 colon): 1.65 µM | TGI (HCT-15 colon): 6.49 µM | GI50 (HL-60(TB) leukemia): 0.138 µM | TGI (HL-60(TB) leukemia): 0.609 µM | GI50 (HOP-62 NSCLC): 0.324 µM | TGI (HOP-62 NSCLC): 1.42 µM | GI50 (HOP-92 NSCLC): 0.019 µM | TGI (HOP-92 NSCLC): 0.0874 µM | GI50 (HS 578T breast): 0.115 µM | TGI (HS 578T breast): 0.863 µM | GI50 (HT29 colon): 0.188 µM | TGI (HT29 colon): 1.43 µM | GI50 (IGROV1 ovarian): 0.239 µM | TGI (IGROV1 ovarian): 2.44 µM | GI50 (K-562 leukemia): 0.005 µM | TGI (K-562 leukemia): 0.794 µM | GI50 (KM12 colon): 0.005 µM | TGI (KM12 colon): 1.3 µM | GI50 (LOX IMVI melanoma): 0.179 µM | TGI (LOX IMVI melanoma): 0.769 µM | GI50 (M14 melanoma): 0.231 µM | TGI (M14 melanoma): 0.864 µM | GI50 (MALME-3M melanoma): 0.135 µM | TGI (MALME-3M melanoma): 0.635 µM | GI50 (MCF7 breast): 0.0903 µM | TGI (MCF7 breast): 0.787 µM | GI50 (MDA-MB-231 breast): 0.0795 µM | TGI (MDA-MB-231 breast): 0.335 µM | GI50 (MDA-MB-435): 0.123 µM | TGI (MDA-MB-435): 0.919 µM | GI50 (MOLT-4 leukemia): 0.141 µM | TGI (MOLT-4 leukemia): 3.86 µM | GI50 (NCI-H226 lung): 0.0758 µM | TGI (NCI-H226 lung): 1.31 µM | GI50 (NCI-H23 lung): 0.277 µM | TGI (NCI-H23 lung): 1.31 µM | GI50 (NCI-H460 lung): 0.209 µM | TGI (NCI-H460 lung): 0.718 µM | GI50 (NCI-H522 lung): 0.187 µM | TGI (NCI-H522 lung): 0.94 µM | GI50 (NCI/ADR-RES ovarian): 30.1 µM | TGI (NCI/ADR-RES ovarian): 50 µM | GI50 (OVCAR-3 ovarian): 0.349 µM | TGI (OVCAR-3 ovarian): 2.06 µM | GI50 (OVCAR-4 ovarian): 0.378 µM | TGI (OVCAR-4 ovarian): 2.1 µM | GI50 (OVCAR-5 ovarian): 0.342 µM | TGI (OVCAR-5 ovarian): 4.33 µM | GI50 (OVCAR-8 ovarian): 0.698 µM | TGI (OVCAR-8 ovarian): 4.05 µM | GI50 (PC-3 prostate): 0.457 µM | TGI (PC-3 prostate): 3.92 µM | GI50 (RPMI-8226 leukemia): 1.01 µM | TGI (RPMI-8226 leukemia): 2.97 µM | GI50 (RXF 393 renal): 0.59 µM | TGI (RXF 393 renal): 1.35 µM | GI50 (SF-268 CNS): 0.207 µM | TGI (SF-268 CNS): 1.11 µM | GI50 (SF-295 CNS): 0.717 µM | TGI (SF-295 CNS): 4.94 µM | GI50 (SF-539 CNS): 0.0616 µM | TGI (SF-539 CNS): 0.596 µM | GI50 (SK-MEL-2 melanoma): 0.131 µM | TGI (SK-MEL-2 melanoma): 0.435 µM | GI50 (SK-MEL-28 melanoma): 0.529 µM | TGI (SK-MEL-28 melanoma): 1.74 µM | GI50 (SK-MEL-5 melanoma): 0.797 µM | TGI (SK-MEL-5 melanoma): 1.83 µM | GI50 (SK-OV-3 ovarian): 0.805 µM | TGI (SK-OV-3 ovarian): 3.2 µM | GI50 (SN12C renal): 0.172 µM | TGI (SN12C renal): 2.63 µM | GI50 (SNB-19 CNS): 0.901 µM | TGI (SNB-19 CNS): 3.99 µM | GI50 (SNB-75 CNS): 0.0874 µM | TGI (SNB-75 CNS): 0.414 µM | GI50 (SR leukemia): 0.0584 µM | TGI (SR leukemia): 1.36 µM | GI50 (SW-620 colon): 0.118 µM | TGI (SW-620 colon): 0.58 µM | GI50 (T-47D breast): 0.603 µM | TGI (T-47D breast): 4.22 µM | GI50 (TK-10 renal): 1.2 µM | TGI (TK-10 renal): 2.99 µM | GI50 (U251 CNS): 0.609 µM | TGI (U251 CNS): 1.45 µM | GI50 (UACC-257 melanoma): 0.608 µM | TGI (UACC-257 melanoma): 2.23 µM | GI50 (UACC-62 melanoma): 0.532 µM | TGI (UACC-62 melanoma): 1.62 µM | GI50 (UO-31 renal): 2 µM | TGI (UO-31 renal): 6.88 µM
